Read-outs that look alike come from different tables or passages of the source.
How the values were obtained:
[1] = tested on: HT29 tumors; assay: In vivo tumor growth retardation, HT29 tumors grafted in nude mice; parameters: species or system CD-1 nude mice; conditions: i.v. on days 0, 5, 10 and 15, 4.05 µmol/kg
Excerpt: The invention will be now described by non limiting examples referring to the following figures: • FIGURE 1. […] NT4(8-13) peptide binding and cell internalization. […] Lysosome localization of NT4(8-13)-TMR. […] NT4(8-13) binding to colon and pancreas tumoral biopsies. Confocal microscopy images of (A) human sections of colon carcinoma, (B) healthy colon, (C) pancreatic carcinoma and (D) healthy pancreas. […] NTR regeneration. […] NT4(8-13)-Che6 cytotoxicity. […] The cells were then washed to remove unbound conjugate and irradiated (except for dark controls) with a total light dose of 3 J/cm^2. Drug phototoxicity was assessed by measuring cell survival, using the MTT assay 24 hours after irradiation. Negative controls (--) included HT29 cells incubated with the conjugate and not irradiated, cells irradiated and not incubated and untreated cells. • FIGURE 9. […] Inhibition of cell growth was tested by an MTT assay after 72 hours of incubation. • FIGURE 10. In vivo tumor growth retardation mediated by NT4(8-13)-MTX. […] Five days after the last injection, animals were sacrificed and tumors were removed and weighed.

[2] = tested on: HT29 cells
Excerpt: Nonetheless, down-regulation of receptors and their depletion from the membrane may dramatically impair the efficiency of a peptide-based therapy.

[3] = tested on: HT29 cells; conditions: 1 h at 4°C, washed, then 37°C
[4] = tested on: HT29 cells; assay: Lysosomal localization with lysotracker green in HT29 cells; conditions: 1 h at 4°C followed by 4 hours in DMEM at 37°C
[5] = tested on: HaCat cells; conditions: 5 µg/ml, 1h at 4°C
Description: (§1) Confocal laser microscopy was used to carry out receptor binding assays. […] After fixing with 4% formalin, the plasma membrane was stained by incubation with concanavalin A-biotin (10 µg/mL in PBS - 1% BSA, Molecular Probes, Cat. No. C21420) at 4°C for 15 min and avidin-FITC (0.5 µg/ml in PBS - 1% BSA, Sigma, Cat. No S3762).

[6] = tested on: HT29 cells; assay: Confocal laser microscopy receptor binding assay on HT29 cells; type: cell-based, human; conditions: 5 µg/ml in PBS - 1% BSA, 1 hour at 4°C
Description: as §1

[7] = tested on: human colon tumors; assay: Fluorescent detection of NT receptors in colon biopsy sections; type: binding; conditions: 0.5 µg/ml, avidin-FITC
Description: (§2) Tumoral and healthy colon and pancreatic tissues were collected from oncological patients undergoing tumor resection. Frozen tissue tek® (Sakura Finetechnical, Tokyo, Japan) embedded tissues were sliced 15 µm thick in a cryostat (Reichert- Jung 2800 frigocut N) and placed on glass slides. Serial sections of the same biopsy were analysed both by hematoxylin/eosin (H&E) light microscopy and by fluorescent confocal microscopy. For immunofluorescent analysis the sections were fixed by immersion in 3% paraformaldehyde in PBS for 15' at room temperature., washed once and stored over night at 4°C with 0.1 M glycine in PBS. After saturation with fetal calf serum, the slices were incubated for 30' at 37°C with NT4(8-13)-Bio (0.5 µg/ml in PBS-BSA 3%) or with the uncorrelated branched peptide (DDHSAV, SEQ ID No. 4)4-Bio (0.5 µg/ml in PBS-BSA 3%), washed twice with PBS and incubated with avidin-FITC (0.5 µg/ml in PBS-BSA 3%) for 15' at room temperature. After washing, the sections were mounted with Mowiol® (Calbiochem, Cat. No. 475904) and sealed with nail polish. Negative controls were carried out incubating the slices (both tumoral and normal tissues) with avidin-FITC without previous incubation with NT4(8-13)-Bio. The fluorescine signal was observed by confocal laser microscopy (BIO-Rad MRC600) with a 488 nm excitation light.

[8] = tested on: healthy and tumoral pancreatic tissues; conditions: 0.5 µg/ml, avidin-FITC
Description: as §2

[9] = target: T1, NT receptors (NTR) (Homo sapiens, UniProt P30989); assay: Inhibition of 125I-NT binding to HT29 cell membranes; conditions: displacement of 125I-NT, HT29 human adenocarcinoma cell membranes
T1 construct: HT29 human adenocarcinoma cell membranes, that over-express NTR; endogenous in cells; host or cells: HT29 human colon adenocarcinoma cell membranes
Description: A tetrameric peptide carrying scrambled NT aminoacids (LRIPRY), scramble NT4(8-13), was used as control and allowed to verify sequence specificity.

[10] = tested on: HT29 cells; assay: Phototoxicity (photokilling) by MTT assay; type: cell-based, human; conditions: 4 hours at 37°C in the dark, 100 µM to 0.1 µM, irradiated 3 J/cm^2
Description: In order to assess the phototoxicity of NT4(8-13)-Che6 conjugate, photokilling experiments were carried out on HT29 cells. HT29 cells (2 x 10^4/well) were plated in 96-well microplates. After growing for 2 days, the cells were incubated at 37°C in the dark with different concentrations of NT4-Che6 (from 100 µM to 0.1 µM in RPMI with 10% FCS) for 4 hours. The cells were then washed to remove unbound conjugate and irradiated (except dark controls) with a Zeiss KL1500 tungsten halogen lamp (Zeiss, Jena, Germany) equipped with a 600-800 nm band pass filter (Corion, Franklin, MA) and with two optical fibers placed 1 cm from the well. The plate was placed back in the incubator overnight and the phototoxicity of the conjugate was monitored in a MTT assay. Similar experiments were performed with scramble NT4(8-13)-Che6 [(LRIPRY)4-Che6] and with free Che6. Further controls included HT29 cells incubated with the conjugate and not irradiated, cells irradiated and not incubated and untreated cells.

[11] = tested on: HT29 tumors
Description: Female CD-1 nude mice (Charles River Laboratories Inc., Wilmington, MA) 6-7 weeks of age (mean weight of 25 g), were injected subcutaneously in the right flank with of 2 x 10^6 HT29 cells.
Tumor volumes were measured daily with a caliper using the following formula: Volume = length x width^2 x Π/6. The tumor volumes for each group were pooled to plot mean tumor growth curves. At the end of the experiment, the mice were sacrificed. Tumors were removed and weighed and the weights compared between treated and control mice.

[12] = tested on: HT29 cells; assay: In vitro cytostatic activity by MTT assay, HT29; type: cell-based, human
Description: HT29 cells were plated in 0.2 ml aliquots at a density of 5 x 10^3 in a 96-well microplate. Different concentrations of NT4-MTX were added 24 hours after plating. Growth inhibition was assessed by MTT assay 6 days later. The same experiments were carried out with the scramble analog of the conjugate and with free MTX.
The same experiments were performed with the scramble analogue [(LRIPRY)4-MTX] and with unconjugated MTX. SW620 (NTR-expressing human colon carcinoma cell line, Istituto Zooprofilattico Sperimentale, Brescia, Italy) and on HCT116 (NTR-expressing human colon carcinoma cell line, Istituto Zooprofilattico Sperimentale, Brescia, Italy cell lines) were also tested with the same procedure.

T1 sequence (P30989 whole entry): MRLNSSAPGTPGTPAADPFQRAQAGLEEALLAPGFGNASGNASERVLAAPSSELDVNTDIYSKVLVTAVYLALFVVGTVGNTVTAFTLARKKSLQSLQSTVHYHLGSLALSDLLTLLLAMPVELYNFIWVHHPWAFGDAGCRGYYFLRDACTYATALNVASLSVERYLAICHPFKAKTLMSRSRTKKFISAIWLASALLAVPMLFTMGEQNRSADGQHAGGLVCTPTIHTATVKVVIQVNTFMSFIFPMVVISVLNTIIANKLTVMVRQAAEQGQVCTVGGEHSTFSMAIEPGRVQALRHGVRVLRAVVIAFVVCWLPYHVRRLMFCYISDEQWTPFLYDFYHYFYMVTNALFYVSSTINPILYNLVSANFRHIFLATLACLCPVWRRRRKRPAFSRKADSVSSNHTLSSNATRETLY

CN(Cc1cnc2nc(N)nc(N)c2n1)c1ccc(C(=O)N[C@@H](CCC(=O)O)C(=O)O)cc1 [MTX, Methotrexate]
tumor growth ([1]; compared to control mice): slight decrease in tumor growth | Tumor weight, measured at the end of the experiment ([1]; five days after the last injection, Fig. 10): almost the same

tetrameric NT(8-13)4-PEG-Tetramethyl rhodamine [NT4(8-13)-TMR]
saturation of membrane receptors ([2]; 100 µg/ml in PBS - 1% BSA, 1 h at 4°C): saturated | peptide fluorescence localization ([3]; 4 hours): completely internalised | peptide fluorescence localization ([3]; 18 hours): complete degradation of the peptide conjugate | peptide fluorescence localization ([3]; time 0): localized exclusively on the plasma membrane | peptide fluorescence localization ([3]; two hours): present on the plasma membrane and in the cytoplasm | lysosomal localization [4]: colocalization of NT4(8-13)-TMR with lysotracker green was observed | rhodamine signal [5]: no rhodamine signal | red fluorescent signal on the plasma membrane [6]: binding of the peptide to membrane receptors

Tetrameric NT(8-13)4-PEG-Biotin [NT4(8-13)-Bio]
fluorescent staining of tumoral biopsies ([7]; colon tumoral biopsies (ten), 30' at 37°C): All colon tumoral specimens were positively stained | fluorescent staining of healthy tissue ([7]; corresponding normal colon tissue from the same patient): only one of the healthy tissues showed a low fluorescent signal | green signal (avidin FITC) after receptor saturation ([2]; 0.5 µg/ml, directly after saturation with NT4(8-13)-TMR): did not produce any detectable green signal | receptor availability for ligand binding after regeneration ([2]; after saturation with NT4(8-13)-TMR, washing and 37°C in culture medium overnight): the receptor was again available for ligand binding | binding to tumoral versus healthy tissue [8]: Analogous results | IC50 [9]: 0.1 nM

tetrabranched NT(8-13)4-PEG-Chlorine e6 [NT4(8-13)-Che6]
phototoxicity (cell survival, MTT) [10]: maintained its cytotoxicity | IC50 [9]: 2200 nM

tetrabranched NT(8-13)-PEG-Methotrexate [NT4(8-13)-MTX]
IC50 [9]: 500 nM | mice death ([11]; 4.05 µmol/kg iv on days 0, 5, 10 and 15): no mice death was observed | Tumor weight ([11]; at the end of the experiment, 4.05 µmol/kg iv x4): significantly reduced | tumor growth ([11]; iv on days 0, 5, 10 and 15, 4.05 µmol/kg, compared to control mice): prevented tumor growth | volume of tumors relative to mice injected with PBS ([11]; iv on days 0, 5, 10 and 15, 4.05 µmol/kg, over the whole treatment): about one third | cytostatic activity (inhibition of cell growth, MTT) [12]: active

— EP1991561B1, “BRANCHED MULTIMERIC PEPTIDES FOR TUMOR DIAGNOSIS AND THERAPY” (Universita' Degli Studi di Siena, priority 2006, dated 2007)
